# According to US5688803A, “Tricyclic dicarbonyl derivatives” (Hoffmann-La Roche Inc., priority 1994, dated 1997):
# Where a name gives a salt, the structure may show the parent alone. Read-outs that look alike come from different tables or passages of the source.
# Legend:
# [1] = target: T1, glycine binding site on the NMDA receptor (Rattus norvegicus, UniProt P35439); assay: Inhibition of [3H]-DCKA (3H-5,7-dichlorokynurenic acid) binding to the glycine binding site on the NMDA receptor, rat brain membranes
# T1 construct: membrane preparations from rat brain; from tissue; host or cells: rat brain membranes
# Protocol: In order to determine the unspecific binding, the corresponding ligands with concentrations of 1 mM glycine and, respectively, 1 mM glutamate are added. Membrane-bound radioligand is separated from non-bound ligands by centrifugation (15 min, at 40 000 kg; ^3 H-DCKA) or filtration (combination of Whatmann GF/C and GF/B filters; ^3 H-AMPA).
# The described substances are used in the binding experiments in different concentrations. The concentrations which inhibited 50% of the binding were determined on the basis of dosage-activity curves for the inhibition of the binding of the corresponding radioligands.
# [2] = target: glutamate binding site on the kainate/AMPA receptor; assay: Inhibition of [3H]-AMPA binding to the glutamate binding site on the kainate/AMPA receptor, rat brain membranes; details: 10 nM ^3 H-AMPA; membrane preparations from rat brain; unspecific binding with 1 mM glutamate; filtration
# Protocol: Carefully washed membrane preparations from rat brain are used for the binding studies. The radioligands are used with concentrations of 20 nM ^3 H-DCKA and, respectively, 10 nM ^3 H-AMPA.
# In order to determine the unspecific binding, the corresponding ligands with concentrations of 1 mM glycine and, respectively, 1 mM glutamate are added. Membrane-bound radioligand is separated from non-bound ligands by centrifugation (15 min, at […]; ^3 H-DCKA) or filtration (combination of Whatmann GF/C and GF/B filters; ^3 H-AMPA).
# The described substances are used in the binding experiments in different concentrations.
# [3] = 20 nM ^3 H-DCKA, membrane preparations from rat brain, unspecific binding with 1 mM glycine, centrifugation, read-out: [^3 H]-DCKA IC50
Compound,"IC50 [1, 3] [nM]",IC50 [2] [nM],IC50 [1] [nM]
"O=c1[nH]ncc2c1c(O)nc1cc(Cl)ccc12 [Example 43, 8-Chloro-5-hydroxy-3,4-dihydro-pyridazino [4,5-c]quinolin-4-one]",909,,
"O=c1[nH]nc2c3ccc(Cl)cc3[nH]c(=O)n12 [Example 3, 8-Chloro-2,3,5,6-tetrahydro-1,2,4-triazolo[4,3-c]quinazoline-3,5-dione]",432,1750,
"O=c1[nH]oc2c1c(=O)[nH]c1cc(Cl)ccc12 [Example 56, 7-Chloro-2,3,4,5-tetrahydro-isoxazolo[4,5-c]quinoline-3,4-dione]",266,20,
"O=c1[nH]oc2c1c(=O)[nH]c1cc([N+](=O)[O-])ccc12 [Example 55, 7-nitro-2,3,4,5-tetrahydro-isoxazol-[4,5-c]quinoline-3,4-dione]",459,421,
"O=c1[nH]nc2c3cc(F)c([N+](=O)[O-])cc3[nH]c(=O)n12 [Example 27, 9-Fluoro-8-nitro-2,3,5,6-tetrahydro-1,2,4-triazolo[4,3-c]quinazoline-3,5-dione]",360,189,
"O=c1[nH]nc2c3cc(Cl)c(Cl)cc3[nH]c(=O)n12 [Example 11, 8,9-Dichloro-2,3,5,6-tetrahydro-1,2,4-triazolo[4,3-c]quinazoline-3,5-dione]",31,660,
"O=c1[nH]nc2c3cc(N4CCCC4)c([N+](=O)[O-])cc3[nH]c(=O)n12 [Example 32, 8-Nitro-9-pyrrolidin-1-yl-2,3,5,6-tetrahydro-1,2,4-triazolo-[4,3-c]quinazoline-3,5-dione]",3600,163,
"O=c1[nH]nc2c3ccc(C(F)(F)F)cc3[nH]c(=O)n12 [Example 23, 8-Trifluoromethyl-2,3,5,6-tetrahydro-1,2,4-triazolo[4,3-c]quinazoline-3,5-dione]",379,1010,
"O=c1[nH]nc2c3cc(Br)c([N+](=O)[O-])cc3[nH]c(=O)n12 [Example 38, 9-Bromo-8-nitro-2,3,5,6-tetrahydro-1,2,4-triazolo[4,3-c]quinazoline-3,5-dione]",68,71,
"O=c1[nH]nc2c3ccc(F)cc3[nH]c(=O)n12 [Example 6, 8-Fluoro-2,3,5,6-tetrahydro-1,2,4-triazolo[4,3-c]quinazoline-3,5-dione]",710,8160,
"COc1ccc2c(c1)[nH]c(=O)n1c(=O)[nH]nc21 [Example 17, 8-Methoxy-2,3,5,6-tetrahydro-1,2,4-triazolo[4,3-c]quinazoline-3,5-dione]",180,2370,
"O=c1[nH]nc2c3ccc([N+](=O)[O-])cc3[nH]c(=O)n12 [Example 21, 8-Nitro-2,3,5,6-tetrahydro-1,2,4-triazolo[4,3-c]quinazoline-3,5-dione]",690,243,
"O=c1[nH][nH]c2c1c(O)nc1cc(Cl)ccc12 [Example 48, 7-Chloro-4-hydroxy-2,3-dihydro-1H-pyrazolo[4,3-c]quinolin-3-one]",193,7310,
"Cc1cc2[nH]c(=O)n3c(=O)[nH]nc3c2cc1C [Example 14, 8,9-Dimethyl-2,3,5,6-tetrahydro-1,2,4-triazolo[4,3-c]quinazoline-3,5-dione]",132,2310,
"O=c1[nH]nc2c3cc(Cl)c([N+](=O)[O-])cc3[nH]c(=O)n12 [Example 25, 9-Chloro-8-nitro-2,3,5,6-tetrahydro-1,2,4-triazolo[4,3-c]quinazoline-3,5-dione]",50,50,
O=c1nc2c3cc(N4CCCC4)c([N+](=O)[O-])cc3[nH]c(=O)n2[nH]1 [sodium salt],3060,336,
"O=c1[nH]nc2c3ccc(Br)cc3[nH]c(=O)n12 [Example 8, 8-Bromo-2,3,5,6-tetrahydro-1,2,4-triazolo[4,3-c]quinazoline-3,5-dione]",322,1170,
"O=c1[nH]nc2c3cc(N4CCOCC4)c([N+](=O)[O-])cc3[nH]c(=O)n12 [Example 34, 9-morpholin-4-yl-8-nitro-2,3,5,6-tetrahydro-1,2,4-triazolo[4,3-c]quinazoline-3,5-dione]",8540,296,
"Nc1cc2c(cc1Cl)[nH]c(=O)n1c(=O)[nH]nc21 [Example 29, 9-amino-8-chloro-2,3,5,6-tetrahydro-1,2,4-triazolo[4,3-c]quinazoline-3,5-dione hydrochloride]",1320,8590,
"O=c1nc2c3cc(-n4ccnc4)c([N+](=O)[O-])cc3[nH]c(=O)n2[nH]1 [Example 36, 9-Imidazol-1-yl-8-nitro-2,3,5,6-tetrahydro-[1,2,4]-triazolo[1,5-c]quinazoline-2,5-dione]",2560,16,
"O=c1nc2c3cc(Cl)c([N+](=O)[O-])cc3[nH]c(=O)n2[nH]1 [Example 26, 9-Chloro-8-nitro-1-yl-2,3,5,6-tetrahydro-[1,2,4]triazolo[1,5-c]quinazoline-2,5-dione sodium salt]",43,82,
"O=c1[nH]nc2c3c(Cl)cc(Cl)cc3[nH]c(=O)n12 [Example 12, 8,10-Dichloro-2,3,5,6-tetrahydro-1,2,4-triazolo[4,3-c]quinazoline-3,5-dione]",79,620,
"CN(C)c1cc2c(cc1[N+](=O)[O-])[nH]c(=O)n1c(=O)[nH]nc21 [Example 30, 9-Dimethylamino-8-nitro-2,3,5,6-tetrahydro-1,2,4-triazolo[4,3-c]quinazoline-3,5-dione]",342,47,
"O=c1[nH]nc2c3ccc(I)cc3[nH]c(=O)n12 [Example 9, 8-Iodo-2,3,5,6-tetrahydro-1,2,4-triazolo[4,3-c]quinazoline-3,5-dione]",189,1480,
"O=c1[nH]nc2c3cc([N+](=O)[O-])c(Cl)cc3[nH]c(=O)n12 [Example 24, 8-Chloro-9-nitro-2,3,5,6-tetrahydro-1,2,4-triazolo[4,3-c]quinazoline-3,5-dione]",359,362,
"O=c1[nH][nH]c2c1c(O)nc1cc(Cl)c(Cl)cc12 [Example 49, 7,8-Dichloro-4-hydroxy-2,3-dihydro-1H-pyrazolo[4,3-c]quinolin-3-one]",73,1370,
"O=c1[nH]nc2c3cc([N+](=O)[O-])c([N+](=O)[O-])cc3[nH]c(=O)n12 [Example 37, 8,9-Dinitro-2,3,5,6-tetrahydro-1,2,4-triazolo[4,3-c]quinazoline-3,5-dione]",,117,640
"O=c1[nH]nc2c3cc(F)c(Cl)cc3[nH]c(=O)n12 [Example 10, 8-Chloro-9-fluoro-2,3,5,6-tetrahydro-1,2,4-triazolo[4,3-c]quinazoline-3,5-dione]",202,1250,
